Data from US4314988A, “Folic acid derivatives and process for preparation” (Baker Instruments Corp., priority 1979, dated 1982).
Each block holds one compound with its values, some of them ahead of it.

Experiments:
whole milk folate binder = whole milk folate binder (Bos taurus, UniProt P02702); assay: Competitive protein binding (CPB) radioassay for folates using pteroyltyrosine [125I] as radiolabel; conditions: for coincidence of dose response curves generated using pteroyltyrosine [125I] as label: high pH versus lower pH
Description: The use of the Centria® analytical system, Union Carbide Corporation, in this example, is meant to be illustrative and other methods, both automated and manual, obvious to those skilled in the clinical diagnostic art are also within the scope of this invention.
Briefly, the Centria® system is a tri-modular instrument in which reagents are pipetted on to a multiwell transfer disk and mixed centrifugally with standards or patients' samples. After a suitable incubation period, the components are separated by a centrifugal elution of the bound and free fractions and the bound fractions counted three at a time.
Folic acid and N^5 -methyltetrahydrofolic acid standards in the range 0-20 nanograms/milliliter were prepared in 0.05 M sodium borate, pH 9.3 containing 0.1% human serum albumin. The whole milk binder was prepared according to the method of Rothenberg et al., (3) and dissolved in sodium borate, pH 9.3 containing 0.1% human serum albumin.
(50 microliters, 20,000 cpm) plus 85 microliters of water with the limited number of binding sites contained in a 200 microliter solution of whole milk folate binder. The binding reactions may be shown as follows:
A gamma counter which counts three of the 36 positions at a time for one minute, so constructed that only the eluate bottom portion of the test tubes fits into the counter, was then used to count all samples. Sequential counting of the tubes thus required about 12 minutes. A small computer with printout capability then printed out the data after completion of the cycle.

carboxypeptidase A = assay: Enzymatic hydrolysis of pteroyltyrosine followed spectrophotometrically (uv); assay type: biochemical; conditions: 0.025 M Tris-HCl, 2 mM zinc chloride, pH 7.3, two hours at ambient temperature
Description: Two milliliters of a solution of pteroyltrosine (0.75 mmoles/ml) in 0.025 M Tris-HCl containing 2 mM zinc chloride, pH 7.3 were diluted to 10 ml with distilled water. A portion of this solution (2 ml) was placed in a 1 cm cuvette and in another was placed 2 ml of distilled water. To each of the cuvettes was added 50 μl of a solution of 100 μl carboxypeptidase A suspension (Aldrich chemical, lot 060637) diluted with 0.9 ml of 10% lithium chloride.
The time course of the reaction was followed spectrophotometrically (uv) over a period of two hours at ambient temperature. An increase and shift in max from 280 to 277 nm and a marked decrease in absorption at 220 nm was observed. Two isosbestic points at 242 and 282 nm were visible.

[1] = Storage stability of the radioiodinated product, judged by assay performance; assay type: physicochemical; conditions: stored in a 50% aqueous propylene glycol solution, ten-week period
From the text: Radioiodination of biological compounds frequently leads to marked chemical instability and subsequent degradation of the radiolabel. This problem is often accentuated in the radiolabel when the materials to be radioiodinated are known to be sensitive to oxygen, light or extremes in pH, as is the case with folic acid and some derivatives.
The reaction mixture was applied to a 1×20 cm Sephadex G25, fine, (Pharmacia Fine Chemicals, Uppsala, Sweden) column hydrated with distilled water and equilibrated with 0.1 M potassium phosphate, pH 7.5. The column was eluted with 0.1 M potassium phosphate buffer and 3 ml fractions collected. The product "peak" fractions 32-34 were collected, diluted 1:1 with propylene glycol and stored below 0° C.

Sequence of whole milk folate binder (P02702 20-234): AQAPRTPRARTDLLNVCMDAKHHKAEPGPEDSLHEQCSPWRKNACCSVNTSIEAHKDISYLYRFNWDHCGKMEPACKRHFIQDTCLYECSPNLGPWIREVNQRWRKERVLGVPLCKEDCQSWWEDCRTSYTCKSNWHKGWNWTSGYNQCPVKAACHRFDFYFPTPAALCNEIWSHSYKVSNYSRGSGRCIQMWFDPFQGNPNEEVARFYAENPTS

Structure (SMILES): CN1c2c(O)nc(N)nc2NCC1CNc1ccc(C(=O)N[C@@H](CCC(=O)O)C(=O)O)cc1 (some centres unmarked) [N^5 -methyl THF, N-5-methyltetrahydrofolic acid]
coincidence of dose response curves generated using pteroyltyrosine [125I] as label (whole milk folate binder): more nearly coincident than at lower pH

final uv spectrum after treatment with carboxypeptidase A (carboxypeptidase A): very similar to that of pteroic acid
Structure (SMILES): Nc1nc2ncc(CNc3ccc(C(=O)N[C@@H](Cc4ccc(O)cc4)C(=O)O)cc3)nc2c(=O)[nH]1 [Pteroyltyrosine, Pteroyl-L-Tyrosine]

Structure (SMILES): Nc1nc2ncc(CNc3ccc(C(=O)N[C@@H](CCC(=O)O)C(=O)O)cc3)nc2c(=O)[nH]1 [folic acid, pteroylglutamic acid]
coincidence of dose response curves generated using pteroyltyrosine [125I] as label (whole milk folate binder): more nearly coincident than at lower pH

Structure (SMILES): Nc1nc(O)c2nc(CNc3ccc(C(=O)N[C@@H](Cc4ccc(O)c([125I])c4)C(=O)O)cc3)cnc2n1 [pteroyltyrosine [^125 I]]
performance as radiolabel in CPB radioassay for folic acid (whole milk folate binder; folic acid concentration range 0-20 ng/ml): effective radiolabel in a sensitive CPB radioassay for folic acid
deterioration in assay performance on storage [1]: no deterioration in assay performance over a ten-week period
